One data set relates to wild-type HCT-116 cells. In words: Cell proliferation (MTS), wild-type HCT-116. The data set is classed as cell-based. The note with it: Homo sapiens, 240 h; wild-type HCT-116, 10 days with compound, MTS reading; read-out: IC50 HCT116 WT. The method, boiled down:
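Wild-type HCT-116 cells were seeded at 100 cells/well in McCoy's 5A/10% FBS. From day 1 they were treated with compound in 3-fold dilutions (initial 20 µM, 8 points) for 10 days at 37° C. Proliferation was read by MTS on day 11, and IC50 was obtained from a four-parameter logistic fit.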

A further data set has as its system MTAP^-/- HCT-116 cells. Briefly: Cell proliferation (MTS), MTAP-/- HCT-116. The data set is classed as cell-based, human. The note with it: for Selectivity: HCT116 WT IC50 relative to HCT116 MTAP-/- IC50; for IC50: Homo sapiens, 240 h, MTAP-/- HCT-116, 10 days with compound, MTS reading, read-out: IC50 HCT116 MTAP-/-. The method, boiled down:
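MTAP-/- (CRISPR/Cas9 biallelic knockout) or wild-type HCT-116 cells seeded at 100 cells/well, treated next day with 8-point 3-fold dilutions (top 20 µM) for 10 days at 37 °C, 5% CO2. Viability read by MTS; IC50 from four-parameter logistic fit of inhibition rate vs log concentration.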

Data set [1] in a line: Human liver microsome stability. The data set is classed as in vitro ADME. To be noted: pH 7.4; human liver microsomes 0.5 mg/mL, compound 1 µM, NADPH 1 mM, 37 °C. As for the experimental part: Experimental materials: human liver microsomes (purchased from BIOIVT);
PBS: 0.1 M KH2PO4 and K2HPO4 buffers, pH 7.4.
MgCl2: a certain amount of MgCl2 was weighed out and prepared into a 16 mM MgCl2 solution with PBS.
NADPH (Chinese name: reduced nicotinamide adenine dinucleotide phosphate, purchased from Sigma, Cat. No.: 481973-500 mg): a certain amount of NADPH was weighed out and a 4 mM solution of NADPH was prepared with a 16 mM MgCl2 solution, and the final incubation concentration was 1 mM.
Compounds: 4 µM solutions of the test compounds and positive compounds were prepared with PBS, and the final incubation concentration was 1 µM.
Liver microsomes (purchased from BIOIVT, Cat. No.: X008070): the liver microsomes were diluted to […] with PBS, and the final incubation concentration was 0.5 mg/mL.
The prepared test compound or positive compound was added to a test tube, and then the prepared NADPH was added. The mixture was mixed well. The mixture was pre-incubated in a thermostat incubator at 220 rpm at 37 °C for 5 min, and the prepared liver microsomes were added to start the reaction. All steps were performed in replicate wells. At 0 min, 15 min, 30 min, 45 min, and 60 min, a certain volume of glacial acetonitrile solution containing an internal standard was added to the corresponding tube to precipitate the protein. The mixture was vortexed for 5 min with shaking, and then centrifuged at 4000 rpm for 10 min. […] The samples were analyzed by LC-MS/MS.
The concentrations (peak area ratios) of the example compounds were determined by LC-MS/MS. Rate constants were obtained by plotting "Ln (residual amount of compound %)" versus "incubation time" in Excel, thereby calculating the half-lives and intrinsic clearances of the drugs and providing a basis for the prediction of the in-vivo clearance.
[formula] CLH = CLint × fu × Qh /(CLint×fu+Qh) [formula]
Stability in human liver microsomes

The nature of the next data set: PK experiment in mice. To be noted: female, BALB/c, mouse, plasma, po, 10 mg/kg.
The nature of another data set: PK experiment in rats. Type of data set: in vivo. The note with it: rat; SD male rats, PO 10 mg/kg, vehicle 0.5% MC/0.2% Tween 80, plasma. As for the experimental part:
The samples were analyzed by LC-MS/MS. […] Table 6. Pharmacokinetic parameters for rats

For another data set, the target named is T1, hERG (Homo sapiens, UniProt Q12809).
T1 construct: purchased ThermoFisher Scientific PV5365
Briefly: hERG test (Predictor hERG Fluorescence Polarization Assay Kit). Type of data set: binding. The note with it: for inhibition at 3.5 h, 10 µM: human, probe Predictor hERG Tracer Red, 10 µM test substance, three duplicate wells; for IC50: only 10 µM tested. As for the experimental part:
Predictor™ hERG Fluorescence Polarization Assay Kit (ThermoFisher Scientific, PV5365).
The procedures in the kit instructions were followed: 4× Predictor™ hERG Tracer Red, 4× E-4031, and 4× test substance solutions (final assay concentration: 10 µM) were prepared in advance. 5 µL Predictor™ hERG FP Assay Buffer and 5 µL Predictor™ hERG Membrane were added sequentially to the Assay Blank group in a 384-well plate. 2.5 µL Predictor™ hERG FP Assay Buffer, 2.5 µL of 4× E-4031, and 2.5 µL of 4× test substance were added to the negative control group, the positive control group, and the test substance group, respectively, and then 5 µL Predictor™ hERG Membrane and 2.5 µL of 4× Predictor™ hERG Tracer Red were sequentially added. The total volume of the experimental system was 10 µL, and three duplicate wells were set for each group. After loading, the plate was gently tapped to mix well and incubated at room temperature (25 °C) in the dark for 3.5 h. After the incubation was completed, the fluorescence polarization value mP was measured on a microplate reader, and G Factor was 2.14.
The inhibition rate of the test substance was calculated using the following formula: [formula]

Here are results for 9 compounds from patent EP4755886A1 (Chengdu Chipscreen Pharmaceutical Ltd., priority 2023, dated 2025).

The term half-life denotes the time needed for the level to fall by half in the phase considered. A low value points to fast loss. A word on the AUC(0-t): it is exposure summed from dosing to a finite time, without extrapolation to infinity. By Cmax is commonly meant the peak of the concentration-time curve. Usually inhibition stands for the share of the control response that was lost under treatment.

T1 sequence (Q12809 whole entry): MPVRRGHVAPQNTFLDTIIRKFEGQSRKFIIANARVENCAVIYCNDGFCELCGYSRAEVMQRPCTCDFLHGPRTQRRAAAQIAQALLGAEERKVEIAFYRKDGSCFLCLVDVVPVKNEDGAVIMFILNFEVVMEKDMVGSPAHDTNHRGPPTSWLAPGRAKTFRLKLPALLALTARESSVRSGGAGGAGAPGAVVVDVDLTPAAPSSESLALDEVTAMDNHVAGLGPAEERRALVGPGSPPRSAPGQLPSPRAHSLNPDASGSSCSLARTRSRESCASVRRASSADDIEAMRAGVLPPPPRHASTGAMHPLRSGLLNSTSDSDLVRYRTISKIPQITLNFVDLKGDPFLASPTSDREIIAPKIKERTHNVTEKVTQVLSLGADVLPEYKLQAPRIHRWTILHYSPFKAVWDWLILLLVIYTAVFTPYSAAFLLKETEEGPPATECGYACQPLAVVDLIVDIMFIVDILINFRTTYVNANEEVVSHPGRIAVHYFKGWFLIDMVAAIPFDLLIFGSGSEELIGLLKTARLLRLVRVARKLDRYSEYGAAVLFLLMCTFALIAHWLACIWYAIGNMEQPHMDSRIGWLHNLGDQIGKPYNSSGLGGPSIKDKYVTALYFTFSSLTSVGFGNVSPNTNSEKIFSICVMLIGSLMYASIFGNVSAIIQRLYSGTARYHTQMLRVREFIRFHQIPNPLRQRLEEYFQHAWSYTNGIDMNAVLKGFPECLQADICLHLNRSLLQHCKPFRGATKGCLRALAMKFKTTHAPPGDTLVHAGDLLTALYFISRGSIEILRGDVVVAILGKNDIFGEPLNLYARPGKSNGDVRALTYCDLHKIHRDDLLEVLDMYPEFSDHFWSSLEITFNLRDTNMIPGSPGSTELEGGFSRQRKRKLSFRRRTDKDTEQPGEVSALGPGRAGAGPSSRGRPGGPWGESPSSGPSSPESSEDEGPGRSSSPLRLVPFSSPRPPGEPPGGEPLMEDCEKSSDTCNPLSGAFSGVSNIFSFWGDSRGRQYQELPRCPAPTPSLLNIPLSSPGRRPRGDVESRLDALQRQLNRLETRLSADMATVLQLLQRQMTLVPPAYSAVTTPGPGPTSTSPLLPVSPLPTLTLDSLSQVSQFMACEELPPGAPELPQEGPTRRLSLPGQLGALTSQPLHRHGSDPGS

As to `CN(C(=O)c1ccc2nc(N)c3cnn(C)c3c2c1)C1COc2cc(C#Cc3cnn(C4CC4)c3)ccc21` (stereo not drawn) [Compound 4, 4-amino-N-(6-((1-cyclopropyl-1H-pyrazol-4-yl)ethynyl)-2,3-dihydrobenzofuran-3-yl)-N,1-dimethyl-1H-pyrazolo[4,3-c]quinoline-8-carboxamide], the IC50 with wild-type HCT-116 cells worked out at 1.32 µM. Further, in the data set on MTAP^-/- HCT-116 cells, the Selectivity came out at 165 and the IC50 stood at 0.008 µM. In addition, the half-life at 1 µM in data set [1] was 169 min. In “PK experiment in mice”, this compound displayed an AUC(0-t) of 9150 ± 2240 ng·h/mL and a Cmax of 634 ± 71 ng/mL.
With `CN(C(=O)c1cc2c3c(c(N)nc2cc1F)COC3)[C@@H]1COc2cc(C#Cc3cnn(C4CC4)c3)ccc21` [Compound 16A, (S)-4-amino-N-(6-((1-cyclopropyl-1H-pyrazol-4-yl)ethynyl)-2,3-dihydrobenzofuran-3-yl)-7-fluoro-N-methyl-1,3-dihydrofuro[3,4-c]quinoline-8-carboxamide], the IC50 with wild-type HCT-116 cells was found to be 1.17 µM. In addition, in the data set with MTAP^-/- HCT-116 cells, the Selectivity is on record as 84 and the IC50 is 0.0139 µM. In addition, in the data set “PK experiment in rats”, the area under the curve AUC(0-t) amounted to 13700 ± 2780 ng·h/mL and the peak concentration (Cmax) was determined as 1280 ± 270 ng/mL. In the data set “PK experiment in mice”, this compound showed an exposure AUC(0-t) of 23300 ± 5520 ng·h/mL and a peak concentration (Cmax) of 1600 ± 352 ng/mL.
`Cc1ncccc1C#Cc1ccc2c(c1)OC[C@H]2N(C)C(=O)c1cc2c3c(c(N)nc2cc1Cl)COC3` [Compound 57A, (S)-4-amino-7-chloro-N-methyl-N-(6-((2-methylpyridin-3-yl)ethynyl)-2,3-dihydrobenzofuran-3-yl)-1,3-dihydrofuro[3,4-c]quinoline-8-carboxamide]: the IC50 in the data set with wild-type HCT-116 cells worked out at 1 µM. In addition, in the data set on MTAP^-/- HCT-116 cells, the Selectivity was 125 and the IC50 was determined as 0.008 µM. Besides, on hERG, the inhibition at 3.5 h, 10 µM was 14.2 ± 18% and the IC50 was above 10 µM. Besides, in “PK experiment in mice”, the area under the curve AUC(0-t) is 10500 ± 2400 ng·h/mL and the Cmax amounted to 1810 ± 195 ng/mL.
For `CN(C(=O)c1cc2c(cc1F)nc(N)c1cnn(C)c12)[C@@H]1COc2cc(C#Cc3cnc4n3CCCC4)ccc21` [Compound 66A, (S)-4-amino-7-fluoro-N,1-dimethyl-N-(6-((5,6,7,8-tetrahydroimidazo[1,2-a]pyridin-3-yl)ethynyl)-2,3-dihydrobenzofuran-3-yl)-1H-pyrazolo[4,3-c]quinoline-8-carb oxamide], the IC50 in the data set on wild-type HCT-116 cells was determined as 0.299 µM. Also, in the data set with MTAP^-/- HCT-116 cells, the Selectivity came out at 150 and the IC50 came out at 0.002 µM. On hERG, the inhibition at 3.5 h, 10 µM is 14.2 ± 14% and the IC50 was above 10 µM. In “PK experiment in mice”, this compound gave an AUC(0-t) of 23200 ± 3390 ng·h/mL and a peak concentration (Cmax) of 3830 ± 533 ng/mL.
As to `CN(C(=O)c1cc2c3c(c(N)nc2cc1Cl)COC3)[C@@H]1COc2cc(C#Cc3cnn4c3CCCC4)ccc21` [Compound 91A, (S)-4-amino-7-chloro-N-methyl-N-(6-((4,5,6,7-tetrahydropyrazolo[1,5-a]pyridin-3-yl)ethynyl)-2,3-dihydrobenzofuran-3-yl)-1,3-dihydrofuro[3,4-c]quinoline-8-car boxamide], the IC50 in the data set with wild-type HCT-116 cells was 1.39 µM. Moreover, in the data set with MTAP^-/- HCT-116 cells, the Selectivity was 195 and the IC50 is 0.0071 µM. In data set [1], this compound showed a half-life at 1 µM of 47.2 min.
In turn, `C#Cc1ccc2c(c1)OCC2N(C)C(=O)c1cc2c(cc1F)nc(N)c1cnn(C)c12` (stereo not drawn) [Reference Example 1, reference compound] had a half-life at 1 µM in data set [1] of 16.6 min.
`C#Cc1ccc2c(c1)OCC2N(C)C(=O)c1ccc2nc(N)c3cnn(C)c3c2c1` (stereo not drawn) [Reference Example 2] yielded a half-life at 1 µM in data set [1] of 33.6 min. Moreover, in “PK experiment in rats”, the AUC(0-t) turned out to be 784 ± 595 ng·h/mL and the concentration peaked (Cmax) at 131 ± 17 ng/mL.
`C#Cc1ccc2c(c1)OC[C@H]2N(C)C(=O)c1cc2c3c(c(N)nc2cc1Cl)COC3` [Reference Example 5, reference compound] showed a half-life at 1 µM in data set [1] of 25.6 min. Besides, in the data set “PK experiment in rats”, the AUC(0-t) was 2940 ± 438 ng·h/mL and the highest level (Cmax) was 549 ± 139 ng/mL. In “PK experiment in mice”, this compound displayed an exposure AUC(0-t) of 9080 ± 2790 ng·h/mL and a Cmax of 1400 ± 165 ng/mL.
Take `Nc1nc2cnc(C(=O)N3CCOC[C@@H]3c3ccc(C(F)(F)F)cc3)cc2c2c1COC2` [Reference Example 7, reference compound]: the IC50 worked out at 2.01 µM in the data set on wild-type HCT-116 cells and 0.0974 µM with MTAP^-/- HCT-116 cells. The Selectivity in the data set on MTAP^-/- HCT-116 cells is given as 21. The same compound had a half-life at 1 µM in data set [1] of 28.9 min. The results for the area under the curve AUC(0-t) in “PK experiment in rats” and in the data set “PK experiment in mice” were 853 ± 79 ng·h/mL and 12600 ± 1920 ng·h/mL, respectively. Besides, the values for the Cmax in “PK experiment in rats” and in the data set “PK experiment in mice” were 477 ± 110 ng/mL and 1920 ± 76 ng/mL, respectively.
